Measurements taken from ChEMBL document CHEMBL4270607, “Identification of crizotinib derivatives as potent SHIP2 inhibitors for the treatment of Alzheimer's disease” (Eur J Med Chem, 2018).
The source made the active and inactive calls. No cut-off for these calls is given here.

Columns and labels:
[1] = Apparent volume of distribution in Sprague-Dawley rat at 2 mg/kg, iv administered as single dose by LC-MS/MS analysis; type: ADME, organism-based; conditions: in vivo, read-out: Vz
[2] = Drug uptake in brain of Sprague-Dawley rat at 5 mg/kg, iv measured at 5 hrs by LC-MS/MS analysis; type: ADME, organism-based; conditions: read-out: Drug uptake
[3] = Drug uptake in blood of Sprague-Dawley rat at 5 mg/kg, iv measured at 0.5 hrs by LC-MS/MS analysis; type: ADME, organism-based; conditions: read-out: Drug uptake
[4] = Drug uptake in brain of Sprague-Dawley rat at 5 mg/kg, iv measured at 1 hr by LC-MS/MS analysis; type: ADME, organism-based; conditions: read-out: Drug uptake
[5] = Oral bioavailability in Sprague-Dawley rat at 2 mg/kg, iv administered as single dose by LC-MS/MS analysis; type: ADME, organism-based; conditions: in vivo
[6] = Half life in Sprague-Dawley rat at 10 mg/kg, po administered as single dose by LC-MS/MS analysis; type: ADME, organism-based; conditions: in vivo
[7] = MRT (0 to infinity) in Sprague-Dawley rat at 10 mg/kg, po administered as single dose by LC-MS/MS analysis; type: ADME, organism-based; conditions: in vivo
[8] = AUC (0 to infinity) in Sprague-Dawley rat at 2 mg/kg, iv administered as single dose by LC-MS/MS analysis; type: ADME, organism-based; design: dose 2 mg/kg, time infinity, route intravenous; conditions: in vivo
[9] = MRT (0 to infinity) in Sprague-Dawley rat at 2 mg/kg, iv administered as single dose by LC-MS/MS analysis; type: ADME, organism-based; conditions: in vivo
[10] = Drug uptake in blood of Sprague-Dawley rat at 5 mg/kg, iv measured at 2 hrs by LC-MS/MS analysis; type: ADME, organism-based; conditions: read-out: Drug uptake
[11] = Cmax in Sprague-Dawley rat at 10 mg/kg, po administered as single dose by LC-MS/MS analysis; type: ADME, organism-based; design: dose 10 mg/kg, route oral; conditions: in vivo
[12] = Half life in Sprague-Dawley rat at 2 mg/kg, iv administered as single dose by LC-MS/MS analysis; type: ADME, organism-based; conditions: in vivo
[13] = AUC (0 to t) in Sprague-Dawley rat at 2 mg/kg, iv administered as single dose by LC-MS/MS analysis; type: ADME, organism-based; conditions: in vivo
[14] = target: T1, Phosphatidylinositol 3,4,5-trisphosphate 5-phosphatase 2 (Mus musculus) (UniProt Q6P549); test: Inhibition of SHIP2 in H2O2-stimulated mouse HT22 cells assessed as decrease in PI(3,4)P2 production at 10 uM incubated for 30 mins followed by H2O2 stimulation for 5 mins in presence of PTEN inhibitor VO-Ohpic trihydrate by ELISA
T1 sequence (whole entry): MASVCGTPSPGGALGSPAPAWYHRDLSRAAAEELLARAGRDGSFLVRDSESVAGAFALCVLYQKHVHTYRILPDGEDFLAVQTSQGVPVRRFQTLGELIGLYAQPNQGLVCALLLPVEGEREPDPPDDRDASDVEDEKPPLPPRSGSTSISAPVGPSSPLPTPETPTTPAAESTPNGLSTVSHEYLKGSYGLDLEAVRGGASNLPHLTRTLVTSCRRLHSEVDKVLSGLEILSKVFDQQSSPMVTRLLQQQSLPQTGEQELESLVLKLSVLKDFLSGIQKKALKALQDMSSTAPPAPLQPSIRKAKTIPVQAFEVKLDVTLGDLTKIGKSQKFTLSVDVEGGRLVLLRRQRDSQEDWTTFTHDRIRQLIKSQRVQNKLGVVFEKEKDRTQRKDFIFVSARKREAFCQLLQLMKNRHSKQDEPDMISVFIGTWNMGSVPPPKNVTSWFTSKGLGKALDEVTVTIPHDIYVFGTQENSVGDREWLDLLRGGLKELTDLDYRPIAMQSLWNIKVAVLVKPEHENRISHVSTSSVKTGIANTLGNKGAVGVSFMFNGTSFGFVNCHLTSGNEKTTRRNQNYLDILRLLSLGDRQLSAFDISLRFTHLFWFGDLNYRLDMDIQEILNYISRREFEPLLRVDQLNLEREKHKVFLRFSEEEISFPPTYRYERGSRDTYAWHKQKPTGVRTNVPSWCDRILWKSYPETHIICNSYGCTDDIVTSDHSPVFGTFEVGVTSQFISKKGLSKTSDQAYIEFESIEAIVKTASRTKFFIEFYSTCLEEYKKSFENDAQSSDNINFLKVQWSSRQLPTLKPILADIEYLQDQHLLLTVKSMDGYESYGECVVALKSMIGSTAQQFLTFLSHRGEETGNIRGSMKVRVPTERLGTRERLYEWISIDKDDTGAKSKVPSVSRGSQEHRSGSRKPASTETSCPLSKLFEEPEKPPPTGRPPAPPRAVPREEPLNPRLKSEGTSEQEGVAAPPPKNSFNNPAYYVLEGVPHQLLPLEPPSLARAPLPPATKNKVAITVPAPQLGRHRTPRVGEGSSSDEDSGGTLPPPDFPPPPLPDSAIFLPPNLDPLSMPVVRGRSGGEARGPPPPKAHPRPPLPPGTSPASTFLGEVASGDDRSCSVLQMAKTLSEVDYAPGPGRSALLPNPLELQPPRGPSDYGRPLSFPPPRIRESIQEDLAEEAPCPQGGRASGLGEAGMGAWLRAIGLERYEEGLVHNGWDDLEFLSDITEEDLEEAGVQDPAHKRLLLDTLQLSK

[15] = AUC (0 to infinity) in Sprague-Dawley rat at 10 mg/kg, po administered as single dose by LC-MS/MS analysis; type: ADME, organism-based; design: dose 10 mg/kg, route oral, time infinity; conditions: in vivo
[16] = Clearance in Sprague-Dawley rat at 2 mg/kg, iv administered as single dose by LC-MS/MS analysis; type: ADME, organism-based; conditions: in vivo
[17] = Tmax in Sprague-Dawley rat at 2 mg/kg, iv administered as single dose by LC-MS/MS analysis; type: ADME, organism-based; conditions: in vivo
[18] = MRT (0 to t) in Sprague-Dawley rat at 2 mg/kg, iv administered as single dose by LC-MS/MS analysis; type: ADME, organism-based; conditions: in vivo
[19] = MRT (0 to t) in Sprague-Dawley rat at 10 mg/kg, po administered as single dose by LC-MS/MS analysis; type: ADME, organism-based; conditions: in vivo

Vd [1]: 2.3 L/kg
concentration at 5 h [2]: 194 ng/mL
concentration at 0.5 h [3]: 1800 ng/mL
concentration at 1 h [4]: 2730 ng/mL
bioavailability [5]: 33.3%
half-life [6]: 1.53 h
MRT inf [7]: 3.19 h
AUC(0-inf) [8]: 1720 ng·h/mL
MRT inf [9]: 1.37 h
concentration at 2 h [10]: 559 ng/mL
Cmax [11]: 636 ng/mL
half-life [12]: 1.36 h
AUC(0-t) [13]: 1700 ng·h/mL
inhibition [14]: Active
AUC(0-inf) [15]: 2880 ng·h/mL
clearance [16]: 19.5 mL/min/kg
Tmax [17]: 4.8 min
MRT last [18]: 1.28 h
MRT last [19]: 3.06 h
Structure (SMILES): C[C@@H](Oc1cncc(-c2cnc(N)nc2)c1)c1c(Cl)ccc(F)c1Cl
